Patent US11413278B2, “Compounds and methods for promoting stress resistance” (priority 2015, dated 2022)
Read-outs that look alike come from different tables or passages of the source.

Experiments:
NRF2 [1] = assay: qPCR analysis of NRF2-regulated genes; format: cell-based, human; conditions: for fold induction at 10 µM: Homo sapiens
Outline: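 WI-38 cells treated with compound at 10 μM for 24 hrs, then processed by Cells-to-Ct for RNA isolation, RT and qPCR of NRF2-regulated genes (HMOX1, NQO1, GCLC, GSTM1). Expression normalized to B2M, PPIA and GAPDH; siRNA knockdown of FOXO3 or NRF2 (10 nM) preceded treatment in some runs.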

mTOR = mTOR inhibition (RPS6 phosphorylation status), In-Cell Western; format: cell-based, human
Description: In-Cell Western assays were performed, following a standard immuno-staining protocol. Briefly, WI-38 cells were treated with small molecules for 24 hrs, and then processed and incubated with primary antibody cocktail (Cell Signaling, mouse anti-RPS, 1:25; rabbit-anti-pRPS6-(Ser-235/236), 1:100) overnight at 4° C. Next day, samples were processed and incubated with fluorophore-conjugated secondary antibodies (Cell Signaling, DyLight 680-goat anti-mouse, 1:500; DyLight 800-goat anti-rabbit, 1:1,000). Images were collected on an Odyssey Imager (LI-COR) and analyzed with the Image Studio Lite software (version 5.0.21).
Mammalian target of rapamycin (mTOR) is a crucial regulator of cell growth and metabolism and has been implicated in aging and many diseases, including cancer, diabetes and neurological diseases (Dazert and Hall, 2011; Zoncu et al., 2011). […] In addition, the anti-diabetes drug metformin (Kalender et al., 2010), as well as other AMPK activators such as 2-deoxy-D-glucose (Inoki et al., 2003) and AICAR (Shaw et al., 2004), could inhibit mTORC1. Applicants examined the effects of our molecules (at three doses, 5 μM, 10 μM and 20 μM) on the phosphorylation status of ribosomal protein S6 (RPS6), a readout of mTOR activity, to ask whether they could inhibit mTOR.
In-Cell Western assays were performed, following the same procedures to analyze DNA-damage markers. WI-38 cells were incubated with small molecules for 24 hrs, and then processed and incubated with primary antibody cocktail (mouse anti-RPS, 1:25; rabbit-anti-pRPS6, 1:100) overnight at 4° C. Next day, samples were processed and incubated with fluorophore-conjugated secondary antibodies (goat anti-mouse, 1:500; goat anti-rabbit, 1:1,000) in antibody dilution buffer. Images were collected on an Odyssey Imager (LI-COR) and analyzed with the Image Studio Lite software.

NRF2 [2] = assay: in vitro; format: cell-based, human
[3] = system: PC12 cells expressing poly(Q)103-Htt-EGFP; assay: Poly(Q) toxicity & viability analysis (cellular model of Huntington's disease); format: cell-based, rat; conditions: for M = Huntington's poly-Q toxicity attenuation: score; for K = Huntington's poly-Q toxicity attenuation: summary score
Description: Viability assays were performed as described before (Aiken et al., 2004). PC12 cells that stably express the inducible poly(Q)103-Htt-EGFP were grown in culture. […] Cell viability was analyzed 48 hrs later by measuring ATP content with CellTiter-Glo.
Toxic protein aggregation is a key feature of many age-related neurodegenerative diseases, including Alzheimer's and Huntington's disease (Caughey and Lansbury, 2003; Ross and Poirier, 2004). A number of animal models (Phillips et al., 2009) and cell models (Schlachetzki et al., 2013) have been established to study these diseases. For this purpose, PC12 rat pheochromocytoma cells display neuronal features and produce neurotransmitters and have been used extensively to study neuronal phenotypes, including synaptic transmission and neurological diseases. […] In this model, induced expression of poly(Q)103-Htt-EGFP could lead to the formation of aggregates and exert substantial toxicity in cells.

WI-38 cells = conditions: for No H2O2 stress treatment, at 10 uM (fold change): normalized ATP measurement; for Assay 1: H2O2-resistant: YES/NO, if NO, possibly due to repeated freezing/thawing of stocks
[4] = 24 h, Assay 12(o), at 10 uM, qPCR, read-out: Induction of NRF2-regulated genes: GCLC normalized fold-change
[5] = 24 h, Assay 12(o), at 10 uM, qPCR, read-out: Induction of NRF2-regulated genes: GSTM1 normalized fold-change
[6] = 24 h, Assay 12(o), at 10 uM, qPCR, read-out: Induction of NRF2-regulated genes: HMOX1 normalized fold-change
[7] = rounded fold change, WI-38 cells, 10 μM, 24 hrs, read-out: Summary of effects on NRF2-regulated genes: GCLC
[8] = 10 μM, 24 hrs, WI-38 cells, qPCR, normalized to B2M, n = 4, read-out: GCLC expression, normalized fold change (NRF2-regulated gene)
[9] = WI-38 cells, 10 μM, 24 hrs, n=4, qPCR normalized by B2M, read-out: GCLC Normalized fold change
[10] = WI-38 cells, 10 μM, 24 hrs, n=4, qPCR normalized by B2M, read-out: GSTM1 Normalized fold change
[11] = WI-38 cells, 10 μM, 24 hrs, n=4, qPCR normalized by B2M, read-out: HMOX1 Normalized fold change
[12] = WI-38 cells, 10 μM, 24 hrs, n=4, qPCR normalized by B2M, read-out: NQO1 Normalized fold change
[13] = WI-38 cells, 10 μM, (*) = compromised ability to protect cells from H2O2, could be due to stability issue
[14] = asterisks indicate the loss of the ability to protect cells from H2O2 over time
[15] = derived from dose response curves, 0.6-20 uM, H2O2-resistance of WI-38 cells
[16] = read-out: Est. ED50, dose response 0.6-20 μM, H2O2-resistance
[17] = rounded fold change, WI-38 cells, 10 μM, 24 hrs (RP11 for Gr-1D, RP29 for Gr-4D), read-out: Summary of effects on NRF2-regulated genes: HMOX1
[18] = 10 μM, 24 hrs, WI-38 cells, qPCR, normalized to B2M, n = 4, read-out: HMOX1 expression, normalized fold change (NRF2-regulated gene)
[19] = 24 h, Assay 12(o), at 10 uM, qPCR, read-out: Induction of NRF2-regulated genes: NQO1 normalized fold-change
[20] = rounded fold change, WI-38 cells, 10 μM, 24 hrs (RP29 for Gr-4D), read-out: Summary of effects on NRF2-regulated genes: NQO1
[21] = 10 μM, 24 hrs, WI-38 cells, qPCR, normalized to B2M, n = 4, read-out: NQO1 expression, normalized fold change (NRF2-regulated gene)

Structure (SMILES) | F = Potential NRF2 Activation (NRF2 [1]; 2-point score) | fold induction at 10 µM (NRF2 [1]; [6]) | fold induction at 10 µM (NRF2 [1]; [9]) | fold induction at 10 µM (NRF2 [1]; [10]) | fold induction at 10 µM (NRF2 [1]; [11]) | fold induction at 10 µM (NRF2 [1]; [12]) | F = Potential NRF2 Activation (NRF2 [1]; summary score) | G = mTOR down-regulation (mTOR; 2-point score) | G = mTOR down-regulation (mTOR; summary score) | J = NRF2-dependency for H2O2-resistance (NRF2 [2]; score) | J = NRF2-dependency for H2O2-resistance (NRF2 [2]; summary score) | M = Huntington's poly-Q toxicity attenuation [3] | K = Huntington's poly-Q toxicity attenuation [3] | H2O2-resistant (WI-38 cells; [13]) | No H2O2 stress treatment, at 10 uM (fold change) (WI-38 cells; WI-38 cells) | Assay 1: H2O2-resistant (WI-38 cells) | H2O2-resistant (WI-38 cells; [14]) | EC50 (WI-38 cells; [15]) [µM] | EC50 (WI-38 cells; [16]) [µM] | fold induction at 10 µM (NRF2 [1]; [17]) | other results
Cc1ccc(NC(=O)c2ccc([N+](=O)[O-])o2)cc1C [Gr-1F] | 0 | 0.82 | 1.62 | 1.72 | 1.09 | 1.11 | 0 | 0 | 0 | 0 | 0 | 0 | 0 | YES | 0.60 | YES | YES | 14.8 | 2.88 |  | fold induction at 10 µM (NRF2 [1]; [4]): 1.35; fold induction at 10 µM (NRF2 [1]; [5]): 1.28; fold induction at 10 µM (NRF2 [1]; [7]): 1.62; fold induction at 10 µM (NRF2 [1]; [8]): 1.62; viability of non-stressed cells, reduced by (NRF2 [2]; human, 24 h, 10 uM): by 50%)
O=C(Nc1ccc(Cl)c(Cl)c1)c1ccc([N+](=O)[O-])o1 [Gr-1G] | 0 | 0.5 | 1.57 | 0.948 | 0.503 | 1.26 | 0 | 0 | 0 | 0 | 0 | 0 | 0 | YES |  | YES | YES | 4.8 | 2.95 | 0.5 | fold induction at 10 µM (NRF2 [1]; [4]): 1.57; fold induction at 10 µM (NRF2 [1]; [7]): 1.57; fold induction at 10 µM (NRF2 [1]; [8]): 1.57; fold induction at 10 µM (NRF2 [1]; [18]): 0.5; NRF2-dependency for H2O2-resistance, at 10 uM - with H2O2, 1st experiment (NRF2 [2]; 10 uM, experiment 1 (1st), with H2O2): 1st, YES;; NRF2-dependency for H2O2-resistance, 1st experiment (NRF2 [2]; 10 uM, with H2O2, NRF2 knockdown in WI-38 cells, YES = resistance reduced by at least 50%, partial = 25% to 50%): YES;
O=[N+]([O-])c1ccccc1S(=O)(=O)Nc1cccc2cccnc12 [Gr-3A] | 0 |  | 1.01 | 1.35 | 1.41 | 1.37 | 0 | 0 | 0 | 0 | 0 | 0 | 0 | YES | 0.98 | YES | YES | 11.2 | 4.21 | 1.41 | fold induction at 10 µM (NRF2 [1]; [19]): 1.3; fold induction at 10 µM (NRF2 [1]; [20]): 1.37; fold induction at 10 µM (NRF2 [1]; [18]): 1.41; fold induction at 10 µM (NRF2 [1]; [21]): 1.37
Cc1ccc(S(=O)(=O)Nc2cccc3cccnc23)cc1 [Gr-3B] | 0 |  | 1.1 | 1.1 | 1.04 | 1.07 | 0 | 0 | 0 | 0 | 0 | 0 | 0 | YES | 0.90 |  | YES | 8.5 | 4.24 |  | 
Nc1ccccc1S(=O)(=O)Nc1cccc2cccnc12 [Gr-3C] | 0 | 0.86 | 0.991 | 1.45 | 1.12 | 1.19 | 0 | 0 | 0 | 0 | 0 | 0 | 0 | YES | 0.95 |  | YES | 6.5 | 4.6 |  | 
COc1ccc(C(=O)/C=C/c2ccc(F)cc2)c(OC)c1 [Gr-4A] | 2 | 5.24 | 1.18 | 1.24 | 5.24 | 2.73 | 2 | 0 | 0 | 0 | 0 | 0 | 0 | YES | 1.08 | YES | YES | 9.1 | 4.97 | 5.24 | Potential NRF2 Activation (>=2 target genes induced, by >=1.5-fold) (NRF2 [1]; Assay 13(p)): YES; fold induction at 10 µM (NRF2 [1]; [5]): 1.24; fold induction at 10 µM (NRF2 [1]; [19]): 2.73; fold induction at 10 µM (NRF2 [1]; rounded fold change, WI-38 cells, 10 μM, 24 hrs (RP29 for Gr-4D), read-out: Summary of effects on NRF2-regulated genes: GSTM1): 1.24; fold induction at 10 µM (NRF2 [1]; [20]): 2.73; fold induction at 10 µM (NRF2 [1]; 10 μM, 24 hrs, WI-38, read-out: Expression of at least two NRF2 target genes): > 1.5; fold induction at 10 µM (NRF2 [1]; 10 μM, 24 hrs, WI-38 cells, qPCR, normalized to B2M, n = 4, read-out: GSTM1 expression, normalized fold change (NRF2-regulated gene)): 1.24; fold induction at 10 µM (NRF2 [1]; [18]): 5.24; fold induction at 10 µM (NRF2 [1]; [21]): 2.73
